The values below are quoted from earlier work in US7772273B2 (LifeCycle Pharma A/S, priority 2006, dated 2010).

Read-outs that look alike come from different tables or passages of the source.

The conditions of series [1]: oral.
For series [2] the following is noted: at 25° C.

`CC(C)c1c(C(=O)Nc2ccccc2)c(-c2ccccc2)c(-c2ccc(F)cc2)n1CCC(O)CC(O)CC(=O)O` (stereo not drawn) [atorvastatin, 2-(4-fluorophenyl)-β,δ-dihydroxy-5-(1-methylethyl)-3-phenyl-4-[(phenylamino)carbonyl]-1H-pyrrole-1-heptanoic acid]: the “Systemic availability of HMG-CoA reductase inhibitory activity” value in series [1] is reported as “approximately 30%”. For the same compound, the LDL-C reduction result in the series with LDL-C (given with or without food) is given as “similar”; in the series with LDL-C (regardless of the time of day of drug administration) it was “the same”.

Turning to `NC(CO)(CO)CO` [Trometamol, 2-amino-2-(hydroxymethyl)-1,3-propanediol], the Water solubility entry in series [2] is listed as “about 550 mg/mL”.
